Laboratory results from patent US4079135A, “Morpholine derivatives as antidepressants” (Imperial Chemical Industries Limited, priority 1973, dated 1978).
Where a name gives a salt, the structure may show the parent alone.

Assays:
Oral LD50 in mice = settings: mouse, in vivo, dosed orally
Procedure: The compound of the invention 2-(4H-2,3-dihydro-1,4-benzoxazin-3-one-4-ylmethyl)morpholine hydrogen oxalate has an LD50 in mice of 800 mg./kg. when dosed orally.

[1] = system: reserpine-induced hypothermia in mice; assay: RHL test: reversal of reserpine-induced hypothermia in mice; format: in vivo; settings: 4 hours, over a large number of tests, reserpine 2 mg./kg. s.c. 17 h before
Procedure: This effect is the one primarily used in the art for establishing the relative antidepressant activity in a series of chemically-related compounds. […] Pharmacol., 1962, 14, 509. The RHL test is carried out as follows:-
Mice are kept in a constant temperature room maintained at 21° ± 1° C. Each member of groups of 4 mice is given reserpine (2 mg. of base per kg. bodyweight, given subcutaneously as the acetate). Seventeen hours later the oesophageal temperature (TO) of each mouse is recorded by means of an orally-inserted probe coupled to an electric thermometer which is calibrated in degree Centigrade and which can be read to 0.1° C. Immediately after the temperature measurement the mice are dosed orally with the test compound, or with imipramine, each mouse in a group of 4 being given the same substance, and the oesophageal temperatures are again recorded after 4 hours (T4). The compound under test is dosed at serial dilutions, e.g. 100, 30, 3, 1, 0.3, 0.1 mg./kg. Imipramine is used as the control. […] At 1 mg./kg. it produces an average rise of 1.7° C. A test compound which at a certain dose level gives a rise in temperature equal to or greater than that given by 1 mg./kg. of imipramine, dosed to a different set of mice on the same day, is adjudged "active" at that dose.

For `O=C1COc2ccccc2N1CC1CNCCO1` (stereo not drawn) [2-(4H-2,3-dihydro-1,4-benzoxazin-3-one-4-ylmethyl)morpholine hydrogen oxalate], which LD50 (Oral LD50 in mice) is on record?
Its LD50 is 800 mg/kg.

What does the source list for `CN(C)CCCN1c2ccccc2CCc2ccccc21` [imipramine]?
average rise in the temperature of a reserpinised mouse ([1]; 1 mg./kg. oral): 1.7 °C; average rise in the temperature of a reserpinised mouse ([1]; 3 mg./kg. oral): 3 °C
